Like-named read-outs stand apart in the source and are kept apart here.
Assays:
[1] = target: T1, RyR1 (Sus scrofa, UniProt P16960); assay: [3H]ryanodine binding to skeletal SR (HSR) vesicles; assay type: biochemical, pig; settings: for EC50: Table S4, read-out: EC50, [3H]ryanodine binding, skeletal HSR
T1 construct: from tissue; host or cells: porcine longissimus dorsi muscle, heavy SR vesicles
Experimental: (§1) Crude sarcoplasmic reticulum membrane vesicles were isolated from porcine longissimus dorsi muscle and porcine cardiac left ventricle tissue by differential centrifugation of homogenized tissue, as established previously ([65]). Skeletal heavy SR (HSR) vesicles, which are enriched with RyR1, were isolated by fractionation of crude skeletal SR vesicles using a discontinuous sucrose gradient, in accordance with our published work ([65]). All vesicles were flash-frozen and stored at −80 °C.
(§2) In 96-well plates, skeletal SR membranes (HSR, 1 mg/ml) and cardiac SR membranes (CSR, 3 mg/ml) were preincubated with 1% DMSO or hit compound for 30 min at 22 °C in a solution containing 150 mM KCl, 5 mM GSH, 1 μg/ml Aprotinin/Leupeptin, 1 mM EGTA, and 65 μM or 1.02 mM CaCl2 (as determined by MaxChelator to yield 30 nM or 30 μM of free Ca^2+, respectively), 0.1 mg/ml of BSA, and 20 mM K-PIPES (pH 7.0). Nonspecific [^3H]ryanodine binding to SR was assessed by addition of 40 μM nonradioactively labeled ryanodine. Maximal [^3H]ryanodine binding was assessed by addition of 5 mM adenylyl-imidodiphosphate (AMP-PNP), and in the case of CSR, 20 mM caffeine was added. These control samples were each loaded over four wells per plate. Binding of [^3H]ryanodine (7.5 and 10 nM for CSR and HSR, respectively) was determined following a 3 h incubation at 37 °C and filtration through grade GF/B glass microfiber filters (Brandel Inc) using a Brandel Harvester. In 4 ml of Ecolite scintillation cocktail (MP biomedicals), [^3H]ryanodine retained on the filter was counted using a Beckman LS6000 scintillation counter.

[2] = target: T2, RyR2 (Sus scrofa, UniProt A0A5G2R1W3); assay: [3H]ryanodine binding to cardiac SR (CSR) vesicles; assay type: biochemical, pig
T2 construct: from tissue; host or cells: porcine cardiac left ventricle, crude SR vesicles
Experimental: as §1, §2

[3] = target: T3, RyR2 (Mus musculus, UniProt E9Q401); assay: Ca2+ sparks in saponin-permeabilized ventricular cardiomyocytes; assay type: cell-based
T3 construct: endogenous in cells; host or cells: ventricular cardiomyocytes of male C57BL/6J mice, saponin-permeabilized
Experimental: Mouse ventricular cardiomyocytes were isolated enzymatically from hearts of male C57BL/6J mouse (10–12 weeks old, Jackson Laboratory) as previously described with minor modifications ([66]). Briefly, mice were injected with heparin (500 U/kg body weight) and anesthetized with isoflurane (2 to 5%) to a verified deep surgical plane, whereupon the heart was excised, resulting in euthanasia by exsanguination. Hearts were excised and retrogradely perfused with constant flow on a Langendorff apparatus (37 °C) with Ca^2+-free normal Tyrode’s solution, gassed with 100% O2. Collagenase type II (Worthington Biochemical Co) and protease type XIV (Sigma-Aldrich) were used for enzymatic digestion. Ventricular cardiomyocytes were then mechanically dissociated and filtered through a nylon mesh and allowed to sediment in Tyrode’s solution. The [Ca^2+] of the Tyrode’s solution was then raised to 0.5 mM in stepwise fashion, and cardiomyocytes were kept at room temperature in this solution until use. All animal handling and laboratory procedures were in accordance with the approved protocols of the University of California, Davis Institutional Animal Care and Use Committee conforming to the Guide for the Care and Use of Laboratory Animals published by the US National Institutes of Health (eighth edition, 2011).
Ca^2+ activity was imaged via confocal microscopy (Bio-Rad, Radiance 2100, 40× objective) in the line scan mode (166 lines/s; ex 488 nm, em >505 nm). Ca^2+ sparks were recorded from ventricular cardiomyocytes permeabilized with saponin (50 μg/ml) for 1 min in internal solution containing (in mM) 10 HEPES, 1 EGTA, 1 free MgCl2 (with free [Ca^2+] adjusted to 50 nM using MaxChelator), 120 K-aspartate, 10 reduced glutathione, 5 ATP, 5 phosphocreatine di-Na, creatine phosphokinase 5 U/ml, and dextran (MW: 40,000) 8% at pH 7.20. Cardiomyocytes were immediately washed with saponin-free internal solution and then superfused with internal solution (50 nM Ca^2+free) containing the Ca^2+-sensitive indicator, Fluo-4 pentapotassium salt (10 μM, Invitrogen). Ca^2+ spark parameters were analyzed over a 10 s period from each line scan recording. Ca^2+ transients and diastolic Ca^2+ release events were recorded from intact ventricular cardiomyocytes loaded for 30 min at room temperature with Fluo-4 AM (10 μM, Invitrogen) and Pluronic F-127 (0.02%, Invitrogen) followed by wash and de-esterification for 30 min in Tyrode’s solution containing (in mM) NaCl 140, KCl 4, CaCl2 1.8, MgCl2 1, HEPES 5, Na-HEPES 5, and glucose 5.5 at pH 7.40. To evoke Ca^2+ transients, intact cardiomyocytes were paced at 1 Hz in a field stimulation chamber (Warner Instruments) at room temperature. Ca^2+ activity was assessed in paired fashion before and after incubating cardiomyocytes with fusidic acid (FA) for 6 min at each concentration. ImageJ was used for image processing and analysis, and Ca^2+ sparks were analyzed using the SparkMaster plugin ([67]). Chemical reagents were purchased from Sigma-Aldrich unless indicated otherwise.
Statistical analyses were performed using GraphPad Prism 9. Normality was verified using the D’Agostino & Pearson test. Repeated measures (at different FA concentrations) one-way ANOVA with Geisser–Greenhouse correction followed by the Dunnett’s multiple comparison post-hoc test was used for normally distributed data to determine individual differences in matched responses. […]

T1 sequence (P16960 whole entry): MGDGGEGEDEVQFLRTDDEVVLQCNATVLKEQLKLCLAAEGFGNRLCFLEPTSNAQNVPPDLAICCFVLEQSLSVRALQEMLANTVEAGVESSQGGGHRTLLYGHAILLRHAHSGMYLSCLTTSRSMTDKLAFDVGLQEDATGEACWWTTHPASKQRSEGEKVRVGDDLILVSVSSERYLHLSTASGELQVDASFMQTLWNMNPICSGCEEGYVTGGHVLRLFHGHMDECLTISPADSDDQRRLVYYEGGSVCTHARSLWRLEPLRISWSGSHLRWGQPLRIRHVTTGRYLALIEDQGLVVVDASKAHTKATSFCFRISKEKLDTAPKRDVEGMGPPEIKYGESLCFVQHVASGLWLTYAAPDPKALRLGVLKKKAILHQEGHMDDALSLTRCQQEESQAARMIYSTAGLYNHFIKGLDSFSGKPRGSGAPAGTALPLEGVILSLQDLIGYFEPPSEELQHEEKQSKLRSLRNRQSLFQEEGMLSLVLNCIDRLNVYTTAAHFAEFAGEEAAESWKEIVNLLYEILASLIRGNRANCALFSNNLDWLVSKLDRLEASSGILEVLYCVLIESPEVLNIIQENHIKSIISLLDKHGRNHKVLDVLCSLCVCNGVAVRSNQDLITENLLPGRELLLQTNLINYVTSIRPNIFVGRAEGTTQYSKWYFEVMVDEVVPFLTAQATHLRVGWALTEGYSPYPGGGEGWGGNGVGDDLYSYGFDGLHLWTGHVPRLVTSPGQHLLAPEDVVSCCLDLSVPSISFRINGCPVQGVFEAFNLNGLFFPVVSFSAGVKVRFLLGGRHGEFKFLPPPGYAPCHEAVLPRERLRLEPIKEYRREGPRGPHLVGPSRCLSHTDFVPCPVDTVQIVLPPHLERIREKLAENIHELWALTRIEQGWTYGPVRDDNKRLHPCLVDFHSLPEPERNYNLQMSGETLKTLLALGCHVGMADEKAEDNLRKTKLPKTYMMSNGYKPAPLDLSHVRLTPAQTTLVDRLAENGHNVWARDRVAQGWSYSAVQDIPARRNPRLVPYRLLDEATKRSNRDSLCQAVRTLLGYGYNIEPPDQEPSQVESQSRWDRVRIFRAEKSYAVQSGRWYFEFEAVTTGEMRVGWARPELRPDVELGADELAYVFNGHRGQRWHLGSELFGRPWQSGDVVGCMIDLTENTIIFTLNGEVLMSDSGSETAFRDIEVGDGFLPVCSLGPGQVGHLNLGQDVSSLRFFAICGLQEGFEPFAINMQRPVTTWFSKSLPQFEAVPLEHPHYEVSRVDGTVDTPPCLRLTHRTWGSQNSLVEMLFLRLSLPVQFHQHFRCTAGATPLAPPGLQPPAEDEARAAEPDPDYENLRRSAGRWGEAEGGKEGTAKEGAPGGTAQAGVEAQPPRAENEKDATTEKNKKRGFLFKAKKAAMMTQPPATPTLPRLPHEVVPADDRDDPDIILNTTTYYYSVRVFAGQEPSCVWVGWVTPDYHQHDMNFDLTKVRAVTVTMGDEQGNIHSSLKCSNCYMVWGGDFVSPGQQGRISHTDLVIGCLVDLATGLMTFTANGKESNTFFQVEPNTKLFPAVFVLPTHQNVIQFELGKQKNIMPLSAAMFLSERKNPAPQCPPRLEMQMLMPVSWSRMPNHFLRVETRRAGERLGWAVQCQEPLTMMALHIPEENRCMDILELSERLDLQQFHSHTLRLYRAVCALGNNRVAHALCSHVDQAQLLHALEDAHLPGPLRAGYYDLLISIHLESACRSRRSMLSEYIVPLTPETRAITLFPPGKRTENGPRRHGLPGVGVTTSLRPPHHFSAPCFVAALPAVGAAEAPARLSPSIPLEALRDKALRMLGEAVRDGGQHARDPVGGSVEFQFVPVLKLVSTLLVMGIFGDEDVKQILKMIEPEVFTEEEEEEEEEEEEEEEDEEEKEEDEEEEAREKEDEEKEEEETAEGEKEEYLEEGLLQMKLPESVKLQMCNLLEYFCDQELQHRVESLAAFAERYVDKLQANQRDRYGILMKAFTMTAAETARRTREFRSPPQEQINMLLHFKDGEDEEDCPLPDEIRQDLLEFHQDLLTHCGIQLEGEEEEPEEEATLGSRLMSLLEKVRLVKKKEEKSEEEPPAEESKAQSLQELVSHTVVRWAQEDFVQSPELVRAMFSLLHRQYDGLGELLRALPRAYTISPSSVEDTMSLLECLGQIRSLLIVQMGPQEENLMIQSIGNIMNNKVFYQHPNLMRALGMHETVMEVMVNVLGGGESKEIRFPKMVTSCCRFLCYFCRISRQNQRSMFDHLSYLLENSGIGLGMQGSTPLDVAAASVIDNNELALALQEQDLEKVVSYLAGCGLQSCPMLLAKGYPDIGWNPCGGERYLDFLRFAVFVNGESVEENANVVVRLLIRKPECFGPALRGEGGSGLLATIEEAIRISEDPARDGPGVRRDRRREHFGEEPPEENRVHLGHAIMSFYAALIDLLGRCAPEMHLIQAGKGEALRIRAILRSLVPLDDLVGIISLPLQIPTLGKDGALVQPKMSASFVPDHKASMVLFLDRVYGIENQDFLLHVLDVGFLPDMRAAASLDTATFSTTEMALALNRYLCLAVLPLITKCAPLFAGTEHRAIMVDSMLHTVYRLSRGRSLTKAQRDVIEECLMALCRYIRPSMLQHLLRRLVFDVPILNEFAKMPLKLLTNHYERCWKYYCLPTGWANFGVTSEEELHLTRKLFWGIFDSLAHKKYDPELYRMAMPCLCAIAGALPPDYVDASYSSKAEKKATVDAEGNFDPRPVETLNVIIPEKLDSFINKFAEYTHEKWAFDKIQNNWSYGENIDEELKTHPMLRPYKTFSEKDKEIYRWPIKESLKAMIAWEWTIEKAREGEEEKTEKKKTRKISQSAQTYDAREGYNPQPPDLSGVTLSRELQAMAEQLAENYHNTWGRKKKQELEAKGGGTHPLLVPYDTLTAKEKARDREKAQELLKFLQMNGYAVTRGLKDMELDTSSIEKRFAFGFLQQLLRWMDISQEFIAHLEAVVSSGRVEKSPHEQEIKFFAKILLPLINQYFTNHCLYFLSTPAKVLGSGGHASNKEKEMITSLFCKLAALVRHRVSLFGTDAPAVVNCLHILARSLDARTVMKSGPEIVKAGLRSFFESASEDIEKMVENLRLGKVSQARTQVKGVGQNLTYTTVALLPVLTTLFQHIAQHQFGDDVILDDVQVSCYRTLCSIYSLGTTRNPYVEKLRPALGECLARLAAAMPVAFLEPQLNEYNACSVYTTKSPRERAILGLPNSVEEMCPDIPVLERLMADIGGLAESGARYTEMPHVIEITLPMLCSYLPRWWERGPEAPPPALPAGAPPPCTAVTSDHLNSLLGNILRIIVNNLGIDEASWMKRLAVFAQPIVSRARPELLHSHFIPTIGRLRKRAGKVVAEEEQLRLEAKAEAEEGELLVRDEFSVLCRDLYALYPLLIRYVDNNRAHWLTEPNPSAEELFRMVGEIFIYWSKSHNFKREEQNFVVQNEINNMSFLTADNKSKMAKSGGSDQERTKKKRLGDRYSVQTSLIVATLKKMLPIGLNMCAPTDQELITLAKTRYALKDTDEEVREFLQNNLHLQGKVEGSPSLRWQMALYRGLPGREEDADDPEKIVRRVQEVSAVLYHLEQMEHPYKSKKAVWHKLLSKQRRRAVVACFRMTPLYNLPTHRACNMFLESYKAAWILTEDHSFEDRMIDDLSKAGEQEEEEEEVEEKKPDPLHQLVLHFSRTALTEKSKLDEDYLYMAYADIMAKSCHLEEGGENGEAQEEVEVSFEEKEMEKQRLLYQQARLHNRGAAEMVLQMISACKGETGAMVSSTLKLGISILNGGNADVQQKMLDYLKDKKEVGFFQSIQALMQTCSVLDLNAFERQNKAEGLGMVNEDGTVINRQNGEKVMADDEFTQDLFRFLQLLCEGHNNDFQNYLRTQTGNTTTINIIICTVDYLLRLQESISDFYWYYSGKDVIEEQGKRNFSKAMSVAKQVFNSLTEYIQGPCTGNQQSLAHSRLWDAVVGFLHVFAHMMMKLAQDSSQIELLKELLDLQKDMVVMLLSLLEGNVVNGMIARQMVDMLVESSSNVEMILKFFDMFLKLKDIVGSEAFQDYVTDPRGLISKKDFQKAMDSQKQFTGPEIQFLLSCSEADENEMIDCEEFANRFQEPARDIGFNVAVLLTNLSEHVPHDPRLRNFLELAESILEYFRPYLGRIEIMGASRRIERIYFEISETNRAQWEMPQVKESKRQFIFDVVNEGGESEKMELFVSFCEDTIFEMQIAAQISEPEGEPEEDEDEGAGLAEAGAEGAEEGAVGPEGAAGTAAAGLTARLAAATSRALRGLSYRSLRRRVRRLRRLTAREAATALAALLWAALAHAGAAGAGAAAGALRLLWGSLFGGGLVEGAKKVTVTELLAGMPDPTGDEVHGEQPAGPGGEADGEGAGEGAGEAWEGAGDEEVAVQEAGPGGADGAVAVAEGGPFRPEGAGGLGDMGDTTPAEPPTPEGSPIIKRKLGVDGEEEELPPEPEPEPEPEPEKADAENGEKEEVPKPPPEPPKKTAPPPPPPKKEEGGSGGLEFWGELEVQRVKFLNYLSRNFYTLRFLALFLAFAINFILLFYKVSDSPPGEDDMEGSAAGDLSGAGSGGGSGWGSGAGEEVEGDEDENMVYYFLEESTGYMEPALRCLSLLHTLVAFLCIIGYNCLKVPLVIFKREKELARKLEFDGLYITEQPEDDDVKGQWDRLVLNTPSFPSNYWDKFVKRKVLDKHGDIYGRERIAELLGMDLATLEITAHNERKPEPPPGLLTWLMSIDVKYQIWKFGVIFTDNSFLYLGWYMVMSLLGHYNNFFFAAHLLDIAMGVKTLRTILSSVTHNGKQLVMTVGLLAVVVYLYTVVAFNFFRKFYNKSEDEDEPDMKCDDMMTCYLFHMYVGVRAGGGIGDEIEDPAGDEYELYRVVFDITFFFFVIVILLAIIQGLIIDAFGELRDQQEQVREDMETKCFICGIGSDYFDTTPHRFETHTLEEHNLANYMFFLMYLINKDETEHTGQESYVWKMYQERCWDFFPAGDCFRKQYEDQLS

CC(=O)O[C@H]1C[C@@]2(C)[C@@H](C[C@@H](O)[C@H]3[C@@]4(C)CC[C@@H](O)[C@@H](C)[C@@H]4CC[C@@]32C)/C1=C(\CCC=C(C)C)C(=O)O [FA, (2Z)-2-[(3R,4S,5S,8S,9S,10S,11R,13R,14S,16S)-16-acetyloxy-3,11-dihydroxy-4,8,10,14-tetramethyl-2,3,4,5,6,7,9,11,12,13,15,16-dodecahydro-1H-cyclopenta[a]phenanthren-17-ylidene]-6-methylhept-5-enoic acid]
EC50 ([1]; [Ca2+] 30 nM): 10 nM
EC50 ([1]; [Ca2+], 30 µM): 21100 nM
maximum inhibitory effect on [3H]ryanodine binding ([1]; skeletal SR, 30 nM Ca2+): ~50%
effect on [3H]ryanodine binding to RyR1 ([1]; skeletal SR, 30 μM Ca2+): strongly increased
EC50 ([2]; [Ca2+] 30 nM, Table S4, read-out: EC50, [3H]ryanodine binding, cardiac SR): 1700 nM
effect on [3H]ryanodine binding to RyR2 ([2]; cardiac SR, 30 μM Ca2+): slight activation at high concentrations
Ca2+ spark signal mass relative to 0 nM FA ([3]; 1 μM FA, p = 0.011): decreased significantly
Ca2+ spark signal mass relative to 0 nM FA ([3]; 10 μM FA, p = 0.001): decreased significantly
Ca2+ spark frequency over [FA] relative to 0 nM FA ([3]; [Ca2+]i 50 nM, 6 min exposures): did not detect significant differences
Ca2+ spark signal mass, meancell slope ([3]; increasing [FA], p = 0.0007): −0.336 F/F0 × μm × s/log10(μM)
Ca2+ spark frequency, meancell slope ([3]; increasing [FA], p = 0.115): −0.082 sparks/100 μm/s/log10(μM)
